# Reference: the supplement of paper PMC11208160
# Assay: recombinant barcode read abundance after kanamycin selection (control-corrected) (log10(CPM+1)); higher = more efficient recombination; sequences stand for … in AGTGCAGAGAAAATCGGCCAGTTTTCTCTGCCTGCAGTCCGCATGCCGT…AGATTTATGCAGCGGACTGCCTTTCTCCCAAAGTGATAAACCGGACAGTATCATGGACCGGTTTTCCCGGTAATCCGTATTTGCAAGGTTGGTTTCACT; site = the 11-nt target
# In short: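 Oligos holding a promoter, target, barcode and the J23119-driven first 104 bases of the bridge RNA were Gibson-cloned into a vector that supplied the other 73 bp plus a T7-inducible recombinase. This library was co-electroporated with a donor plasmid into E. coli. Two replicates went on chloramphenicol/ampicillin LB agar (control) and two on chloramphenicol/ampicillin/kanamycin with 0.1 mM IPTG. Recombination efficiency is read from averaged, control-corrected barcode counts per million at recombinant junctions, reported as log10(CPM+1).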
# 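Also: IS621 recombinase and bridge RNA in Escherichia coli cells.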
row,Sequence,recombinant barcode read abundance (log10)
1,CCTACTCCTTGGGTTCTAACCTGTTGCAG (site CCTACTACTCG),0.0435
2,CCTACTCCTTGGGTTCTAACCTGTTGCAG (site CCTACTCCTCT),0.0147
3,CCTATCCCTTGGGTTCTAACCTGTTGCCT (site CCTATCCCTAG),1.32
4,CCTATCCCTTGGGTTCTAACCTGTTGCCT (site CCTTTCACTAG),0.311
5,CCTCAATCTTGGGTTCTAACCTGTTGCTT (site CCTCAATCTAA),0.224
6,CCTCAATCTTGGGTTCTAACCTGTTGCTT (site CCTCACTCTAA),0.0745
7,CCTCAATCTTGGGTTCTAACCTGTTGCTT (site CCTCAGTCTAA),0.0516
8,CCTCAATCTTGGGTTCTAACCTGTTGCTT (site CCTCATTCTAA),0.144
9,CCTCACTCTTGGGTTCTAACCTGTTGCTT (site CCTCAATCTAA),0.058
10,CCTCACTCTTGGGTTCTAACCTGTTGCTT (site CCTCACTCTAA),1.2
11,CCTCACTCTTGGGTTCTAACCTGTTGCTT (site CCTCAGTCTAA),0.00592
12,CCTCACTCTTGGGTTCTAACCTGTTGCTT (site CCTCATTCTAA),0.0602
13,CCTCAGACTTGGGTTCTAACCTGTTGCGA (site CCTCAGACTTC),2.79
14,CCTCAGACTTGGGTTCTAACCTGTTGCGA (site CTTCAGACTTA),0.0629
15,CCTCAGGCTTGGGTTCTAACCTGTTGCCA (site CCTCAGGCTAG),0.312
16,CCTCAGGCTTGGGTTCTAACCTGTTGCCA (site CCTCAGGCTCG),0.0454
17,CCTCAGGCTTGGGTTCTAACCTGTTGCCA (site CCTCAGGCTGG),0.217
18,CCTCAGGCTTGGGTTCTAACCTGTTGCCA (site CCTCAGGCTTG),0.323
19,CCTCAGGCTTGGGTTCTAACCTGTTGCCC (site CCTCAGGCTAG),0.0156
20,CCTCAGGCTTGGGTTCTAACCTGTTGCCC (site CCTCAGGCTCG),0.0734
21,CCTCAGGCTTGGGTTCTAACCTGTTGCCC (site CCTCAGGCTGG),0.651
22,CCTCAGGCTTGGGTTCTAACCTGTTGCCC (site CCTCAGGCTTG),0.399

row,Sequence,recombinant barcode read abundance (log10)
1,CCTCAGGCTTGGGTTCTAACCTGTTGCCG (site CCTCAGGCTAG),0.0315
2,CCTCAGGCTTGGGTTCTAACCTGTTGCCG (site CCTCAGGCTCG),0.229
3,CCTCAGGCTTGGGTTCTAACCTGTTGCCG (site CCTCAGGCTGG),0.107
4,CCTCAGGCTTGGGTTCTAACCTGTTGCCG (site CCTCAGGCTTG),0.125
5,CCTCAGTCTTGGGTTCTAACCTGTTGCGA (site CCTCACTCTCC),0.0773
6,CCTCAGTCTTGGGTTCTAACCTGTTGCGA (site CCTCAGTCTTC),1.81
7,CCTCATTCTTGGGTTCTAACCTGTTGCTT (site CCTCAATCTAA),0.0648
8,CCTCATTCTTGGGTTCTAACCTGTTGCTT (site CCTCACTCTAA),0
9,CCTCATTCTTGGGTTCTAACCTGTTGCTT (site CCTCAGTCTAA),0.142
10,CCTCATTCTTGGGTTCTAACCTGTTGCTT (site CCTCATTCTAA),0.199
11,CCTCTGGCTTGGGTTCTAACCTGTTGCCT (site CCGCTGTCTAG),0.808
12,CCTCTGGCTTGGGTTCTAACCTGTTGCCT (site CCTCTGGCTAG),0.514
13,CCTGACTCTTGGGTTCTAACCTGTTGCCT (site CCTGAATCTAG),0.088
14,CCTGACTCTTGGGTTCTAACCTGTTGCCT (site CCTGACTCTAG),0.85
15,CCTGACTCTTGGGTTCTAACCTGTTGCCT (site CCTGAGTCTAG),0.0146
16,CCTGACTCTTGGGTTCTAACCTGTTGCCT (site CCTGATTCTAG),0.195
17,CCTGCGACTTGGGTTCTAACCTGTTGCCT (site CCTGCGACTAG),0.408
18,CCTGCGACTTGGGTTCTAACCTGTTGCCT (site CCTGCGGCTAG),0.0687
19,CCTGCTCCTTGGGTTCTAACCTGTTGCTT (site CCTACTCCTAG),0.0276
20,CCTGCTCCTTGGGTTCTAACCTGTTGCTT (site CCTGCTCCTAA),0.393
21,CCTGGGACTTGGGTTCTAACCTGTTGCGA (site CCTGGGACTAC),0.0343
22,CCTGGGACTTGGGTTCTAACCTGTTGCGA (site CCTGGGACTCC),0.256

row,Sequence,recombinant barcode read abundance (log10)
1,CCTGGGACTTGGGTTCTAACCTGTTGCGA (site CCTGGGACTGC),0.961
2,CCTGGGACTTGGGTTCTAACCTGTTGCGA (site CCTGGGACTTC),2.58
3,CCTGGTCCTTGGGTTCTAACCTGTTGCCT (site CCTGGGGCTAG),0.16
4,CCTGGTCCTTGGGTTCTAACCTGTTGCCT (site CCTGGTCCTAG),1.56
5,CCTTAGACTTGGGTTCTAACCTGTTGCGT (site CCTAATACTAC),0.107
6,CCTTAGACTTGGGTTCTAACCTGTTGCGT (site CCTTAGACTAC),1.8
7,CCTTCTACTTGGGTTCTAACCTGTTGCCT (site CCTTCTACTAG),0.225
8,CCTTCTACTTGGGTTCTAACCTGTTGCCT (site CCTTCTACTTA),0
9,CCTTGCCCTTGGGTTCTAACCTGTTGCCT (site CATTGCCCTAG),0.0176
10,CCTTGCCCTTGGGTTCTAACCTGTTGCCT (site CCTTGCCCTAG),0.667
11,CCTTGCCCTTGGGTTCTAACCTGTTGCCT (site CGTTGCCCTAG),0.1
12,CCTTGCCCTTGGGTTCTAACCTGTTGCCT (site CTTTGCCCTAG),0.117
13,CCTTGTCCTTGGGTTCTAACCTGTTGCAG (site CCTTGTCCTCT),0.79
14,CCTTGTCCTTGGGTTCTAACCTGTTGCAG (site CGTTGTCCTTT),0.144
15,CCTTGTGCTTGGGTTCTAACCTGTTGCGT (site CCTTGTGCTAC),0.158
16,CCTTGTGCTTGGGTTCTAACCTGTTGCGT (site TAGGTATCTCT),0.0915
17,CCTTGTTCTTGGGTTCTAACCTGTTGCCT (site ACTTGTTCTAG),0.105
18,CCTTGTTCTTGGGTTCTAACCTGTTGCCT (site CCTTGTTCTAG),0.0314
19,CCTTGTTCTTGGGTTCTAACCTGTTGCCT (site GCTTGTTCTAG),0.14
20,CCTTGTTCTTGGGTTCTAACCTGTTGCCT (site TCTTGTTCTAG),0.0322
21,CCTTGTTCTTGGGTTCTAACCTGTTGCTA (site CCTTGTTCTTA),0.113
22,CCTTGTTCTTGGGTTCTAACCTGTTGCTA (site TCGTGTTCTTA),0.149

row,Sequence,recombinant barcode read abundance (log10)
1,CGAAATGCTTGGGTTCTAACCTGTTGCCT (site CGAAATGCTAG),0.798
2,CGAAATGCTTGGGTTCTAACCTGTTGCCT (site CGCAATGCTAG),0.0184
3,CGAAATGCTTGGGTTCTAACCTGTTGCCT (site CGGAATGCTAG),0.035
4,CGAAATGCTTGGGTTCTAACCTGTTGCCT (site CGTAATGCTAG),0.77
5,CGAACGACTTGGGTTCTAACCTGTTGCTT (site CGAACGACTAA),0.0324
6,CGAACGACTTGGGTTCTAACCTGTTGCTT (site CGAACGACTAG),0.113
7,CGAACTACTTGGGTTCTAACCTGTTGCCT (site CGAACTACTAA),0.0404
8,CGAACTACTTGGGTTCTAACCTGTTGCCT (site CGAACTACTAC),0.311
9,CGAACTACTTGGGTTCTAACCTGTTGCCT (site CGAACTACTAG),0.0694
10,CGAACTACTTGGGTTCTAACCTGTTGCCT (site CGAACTACTAT),0.316
11,CGAATGTCTTGGGTTCTAACCTGTTGCGT (site CGAATGTCTAC),0.991
12,CGAATGTCTTGGGTTCTAACCTGTTGCGT (site CGACTGCCTAC),0.0251
13,CGACAGTCTTGGGTTCTAACCTGTTGCGT (site CGACAGTCTAC),2.41
14,CGACAGTCTTGGGTTCTAACCTGTTGCGT (site CGGCAGTCTAC),0.153
15,CGACCCTCTTGGGTTCTAACCTGTTGCCT (site AGACCCTCTAG),0.0358
16,CGACCCTCTTGGGTTCTAACCTGTTGCCT (site CGACCCTCTAG),1.74
17,CGACCCTCTTGGGTTCTAACCTGTTGCCT (site GGACCCTCTAG),0.17
18,CGACCCTCTTGGGTTCTAACCTGTTGCCT (site TGACCCTCTAG),0.381
19,CGACGAGCTTGGGTTCTAACCTGTTGCGG (site CCACGAGCTCC),0.352
20,CGACGAGCTTGGGTTCTAACCTGTTGCGG (site CGACGAGCTCC),1.22
